SMILES strings stand for the structures. Values joined by “and” are separate entries in the source; they are usually repeats but may differ in a detail not shown here. Identical values can stand only once. Like-named read-outs stand apart in the source and are kept apart here.

Here are results for 21 compounds from PMC12750277, “Combining Experimental Assays and Molecular Modeling to Evaluate Monosubstituted Cinnamic Acid Derivatives as PDE4B Inhibitors” (ACS Omega, 2025).

The test system of experiment [1] is TNF-α release in human blood mononuclear cells. The experiment is described as follows: LPS-stimulated TNF-α release in PBMCs (TR-FRET). The class given is cell-based. The conditions noted are these: PBMC, LPS stimulation 18 h, read-out: TNFα IC50. The procedure: The blood was mixed with saline at a ratio of 1:1, and the peripheral blood mononuclear cells (PBMCs) were isolated from buffy coats using Lymphoprep tubes. The PBMCs were suspended in RPMI 1640 with 0.5% human serum albumin, pen/strep, and 2 mM L-glutamine at 5 × 10^5 cells/mL. The cells were preincubated with the test compounds in 96-well plates for 30 min and stimulated for 18 h with […] lipopolysaccharide. TNF-α concentration in the supernatants was measured by homogeneous time-resolved fluorescence resonance (TR-FRET). The assay was quantified by measuring fluorescence at 665 nm (proportional to TNF-α concentration) and 620 nm (control). Results are expressed as IC50 values (μM).
The inhibitory effect of the 19 compounds on the release of HM-TNF-α correlated well with their potency in inhibiting PDE4. […] The well-established correlation between PDE4 inhibition and TNF-α suppression is mechanistically explained by the following pathway: By inhibiting PDE4, these compounds elevate intracellular cAMP levels, which in turn activates protein kinase A (PKA). PKA phosphorylates and inhibits key transcription factors like NF-κB, leading to the downregulation of pro-inflammatory cytokines such as TNF-α. This mechanism provides a solid foundation for understanding the anti-inflammatory effects observed in our study.

In experiment [2] the target is PDE4B (Homo sapiens, UniProt Q07343). Kind of experiment: Human PDE4 enzyme inhibition assay ([3H]-cAMP), PDE4B. The experiment is classed as biochemical. How it is done: (§1) A standard procedure for PDE testing was carried out according to the previously mentioned protocol. , The enzyme was prepared from U937 cells which were derived from human monocytes, and was stored at −20 °C after preparation. Measurement of PDE4 activity was performed using this stored enzyme after it was diluted with distilled water containing bovine serum albumin. The substrate solution was prepared by adding [3H]-cAMP (300,000 dpm (5000 Bq)/ assay) and […] solution to 100 mmol/L Tris-HCl (pH 8.0) containing 5 mmol/L ethylene glycol-bis (β-aminoethyl ether) and O,O′-bis(2-aminoethyl)-ethylene glycol-N,N,N′,N′-tetraacetic acid. The substrate solution was mixed with the enzyme solution containing a test compound dissolved in DMSO, and incubation was done for 30 min at 30 °C.
Sequence of PDE4B (Q07343 249-736 limits assumed): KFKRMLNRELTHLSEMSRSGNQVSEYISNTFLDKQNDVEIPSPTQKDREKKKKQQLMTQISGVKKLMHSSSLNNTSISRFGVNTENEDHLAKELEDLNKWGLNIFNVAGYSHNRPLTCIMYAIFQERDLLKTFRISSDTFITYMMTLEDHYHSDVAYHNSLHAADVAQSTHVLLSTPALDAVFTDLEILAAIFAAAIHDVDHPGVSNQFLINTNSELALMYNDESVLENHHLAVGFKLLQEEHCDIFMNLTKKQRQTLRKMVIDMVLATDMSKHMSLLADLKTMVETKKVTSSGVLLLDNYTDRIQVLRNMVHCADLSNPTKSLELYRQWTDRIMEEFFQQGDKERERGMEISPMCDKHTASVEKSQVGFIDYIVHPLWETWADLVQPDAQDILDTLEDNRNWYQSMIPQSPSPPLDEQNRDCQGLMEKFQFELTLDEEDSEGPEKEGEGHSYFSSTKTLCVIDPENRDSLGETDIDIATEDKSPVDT

In experiment [3] the target is PDE4D (Homo sapiens, UniProt Q08499). Kind of experiment: Human PDE4 enzyme inhibition assay ([3H]-cAMP), PDE4D. The experiment is classed as biochemical. The procedure: as §1
Sequence of PDE4D (Q08499 386-715 limits assumed): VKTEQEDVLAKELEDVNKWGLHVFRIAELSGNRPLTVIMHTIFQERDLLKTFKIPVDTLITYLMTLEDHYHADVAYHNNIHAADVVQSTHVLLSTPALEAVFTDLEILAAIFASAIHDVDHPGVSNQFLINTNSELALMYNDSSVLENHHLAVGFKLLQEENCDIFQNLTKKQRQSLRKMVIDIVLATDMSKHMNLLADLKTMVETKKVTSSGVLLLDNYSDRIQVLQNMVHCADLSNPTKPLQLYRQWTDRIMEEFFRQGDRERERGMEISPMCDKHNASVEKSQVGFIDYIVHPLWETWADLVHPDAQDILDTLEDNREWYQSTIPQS
Experiment [4] relates to LPS induced neutrophilia (neutrophil influx in BALF). Kind of experiment: LPS induced neutrophilia model for asthma and COPD. The experiment is classed as in vivo. The conditions noted are these: Sprague–Dawley rats (n = 6), 10 mg/kg po, BAL 6 h after LPS. How it is done: Neutrophilia was induced in Sprague–Dawley rats by lipopolysaccharide (LPS) following the established protocol. Male Sprague–Dawley rats were acclimatized to laboratory conditions for 1 week prior to the experiment. According to the body weight, the rats were distributed to various groups randomly. Except for the normal group, all the rats were exposed to 100 μg/mL lipopolysaccharide (E. coli, LPS: B4 from Sigma) for 40 min. The rats were dosed with the test compound suspended in the vehicle containing 0.25% carboxymethyl cellulose before half an hour of LPS exposure. Bronchoalveolar lavage (BAL) was performed 6 h after LPS exposure, total cell count and differential leukocyte count (DLC) were performed and compared with control and the standard drug.
In vivo experiments were conducted using an LPS-induced sepsis model to measure TNF-α inhibition in female Swiss Albino mice and to assess neutrophilia inhibition for asthma and COPD in male Sprague–Dawley rats.

The subject of experiment [5] is LPS induced TNF-α. Kind of experiment: LPS induced sepsis for measurement of TNF-α inhibition in mice. The class given is in vivo. The conditions noted are these: Swiss Albino mice (n = 6), 10 mg/kg po, serum 90 min after LPS. The procedure: The sepsis model in mice was induced using lipopolysaccharide (LPS) according to the methods described in the literature. Female Swiss albino mice were selected according to the body weights, which were equivalent within each group. The mice were fasted for 20 h with free access to water and dosed for oral administration (po) with the test compounds suspended in vehicle containing 0.5% Tween 80 in 0.25% sodium salt of carboxymethylcellulose. The control mice received the vehicle alone. After 30 min of oral dosing, the mice were injected intraperitoneally with 500 μg of lipopolysaccharide (Escherichia coli, LPS: B4 from Sigma) in phosphate buffer. Then the mice were bled via retro-orbital sinus puncture after 90 min of LPS administration. Serum samples were collected by centrifuging the blood samples at 4000 rpm for 20 min, which were stored overnight at 4 °C. The serum samples were then immediately checked for TNF-α levels using commercial mouse TNF-α ELISA kit (Amersham Biosciences) and assay was carried out following the manufacturer’s instruction.
In vivo experiments were conducted using an LPS-induced sepsis model to measure TNF-α inhibition in female Swiss Albino mice and to assess neutrophilia inhibition for asthma and COPD in male Sprague–Dawley rats. Details such as the oral dosages and the number of animals used, along with the percentage inhibition of neutrophilia calculated from the DLC, are provided in Table . […] These findings are particularly relevant in the context of COPD pathophysiology, where both TNF-α-driven inflammation and neutrophilic influx are well-established key drivers of tissue damage and disease progression.

Experiment [6] relates to tumor necrosis factor-α (TNF-α) in bronchoalveolar lavage fluid. The note with it: oral administration, experimental COPD mice; cited from earlier work.
Where [7] appears, read: PDE4B IC50, enzyme prepared from U937 cells, average of at least three assays.
[8] abbreviates: PDE4B pIC50 (Experimental), log(1/IC50), IC50 in μM.
Where [9] appears, read: enzyme prepared from U937 cells, average of at least three assays, read-out: PDE4D IC50.
Where [10] appears, read: enzyme prepared from U937 cells, average of at least three assays, read-out: PDE4B IC50.
Setting [11] is: log(1/IC50), IC50 in μM, read-out: PDE4B pIC50 (Experimental) (converted).
Where [12] appears, read: PDE4B, as listed in Table S4 (rounded), read-out: IC50.

In the case of `O=C(O)/C=C/c1ccccc1` [Compound 1, trans-cinnamic acid], the figures for the IC50 in experiment [1], in experiment [2] (setting [7]) and in experiment [2] (setting [8]) were 198 ± 8.2 µM, 90.3 ± 3.8 µM and 91.2 µM, respectively.

Turning to `O=C(O)/C=C/c1ccccc1O` [Compound 2, ortho-coumaric acid], the IC50 was 40.4 ± 0.8 µM in experiment [1], 39.6 ± 1.7 µM in experiment [3] (setting [9]), 41.4 ± 1.3 µM in experiment [2] (setting [10]) and 41.7 µM in experiment [2] (setting [11]).

For the compound `O=C(O)/C=C/c1cccc(O)c1` [Compound 3, meta-coumaric acid], the IC50 was 37.8 ± 1.9 µM in experiment [1], 32.7 ± 2.1 µM in experiment [3] (setting [9]), 28.4 ± 1.4 µM in experiment [2] (setting [10]) and 28.2 µM in experiment [2] (setting [11]).

For the compound `O=C(O)/C=C/c1ccc(O)cc1` [Compound 4, p-coumaric acid], the “LPS induced neutrophilia (% inhibition)” value in experiment [4] is 32.5% and 32.5 ± 0.33%. Moreover, the “TNF-α inhibition (%)” value in experiment [5] was 41.1% and 41.1 ± 0.65%. In addition, the IC50 in experiment [1] was 21.5 ± 1.3 µM; in experiment [3], 2.3 ± 0.7 µM; in experiment [2] (setting [7]) it was 2.2 ± 0.8 µM; in experiment [2] (setting [8]) it was 2.19 µM.

As for `COc1ccccc1/C=C/C(=O)O` [Compound 5, trans-2-methoxycinnamic acid], the IC50 in experiment [1] is 64.2 ± 3.1 µM; in experiment [3] (setting [9]), 91.4 ± 2.9 µM; in experiment [2] (setting [10]), 51.1 ± 1.9 µM; in experiment [2] (setting [11]), 51.3 µM.

With `COc1cccc(/C=C/C(=O)O)c1` [Compound 6, trans-3-methoxycinnamic acid], the IC50 in experiment [1] was 58.3 ± 2 µM; in experiment [3] (setting [9]), 65.6 ± 1.8 µM; in experiment [2] (setting [10]), 32.8 ± 1.1 µM; in experiment [2] (setting [11]), 33.1 µM.

In the case of `COc1ccc(/C=C/C(=O)O)cc1` [Compound 7, trans-4-methoxycinnamic acid], the “LPS induced neutrophilia (% inhibition)” value in experiment [4] was 24.2% and 24.2 ± 0.52%. Further, the “TNF-α inhibition (%)” value in experiment [5] was 29.6% and 29.6 ± 0.36%. The IC50 in experiment [1] is 30.8 ± 1.6 µM; in experiment [3] (setting [9]) it was 45.6 ± 1.8 µM; in experiment [2] (setting [10]), 8.2 ± 1.2 µM; in experiment [2] (setting [11]) it was 8.13 µM. Also, the “selectivity for PDE4B over PDE4D” value in experiment [2] (compared with rolipram) is “higher selectivity ratios for PDE4B over PDE4D than rolipram”.

On to `Cc1ccccc1/C=C/C(=O)O` [Compound 8, trans-2-methylcinnamic acid], for which the IC50 is 169 ± 5.1 µM in experiment [1], 136 µM in experiment [2] (setting [12]), 137 ± 5.8 µM in experiment [2] (setting [10]) and 135 µM in experiment [2] (setting [11]).

`Cc1cccc(/C=C/C(=O)O)c1` [Compound 9, trans-3-methylcinnamic acid]: the IC50 was 121 ± 5.7 µM in experiment [1], 102 µM in experiment [2] (setting [12]), 102 ± 4.1 µM in experiment [2] (setting [10]) and 102 µM in experiment [2] (setting [11]).

On to `Cc1ccc(/C=C/C(=O)O)cc1` [Compound 10, trans-4-methylcinnamic acid], for which the IC50 was 99.2 ± 4.1 µM in experiment [1], 85 µM in experiment [2] (setting [12]), 85.3 ± 3.8 µM in experiment [2] (setting [10]) and 85.1 µM in experiment [2] (setting [11]).

Consider `O=C(O)/C=C/c1ccccc1Cl` [Compound 11, trans-2-chlorocinnamic acid], for which the IC50 is 128 ± 5.8 µM in experiment [1]; 89.6 ± 3.7 µM in experiment [3] (setting [9]); 82 µM in experiment [2] (setting [12]); 82.1 ± 3.9 µM in experiment [2] (setting [10]); 81.3 µM in experiment [2] (setting [11]).

In the case of `O=C(O)/C=C/c1cccc(Cl)c1` [Compound 12, trans-3-chlorocinnamic acid], the IC50 is 119 ± 4.8 µM in experiment [1]; 62.7 ± 2.8 µM in experiment [3] (setting [9]); 63 µM in experiment [2] (setting [12]); 63.2 ± 3.4 µM in experiment [2] (setting [10]); 63.1 µM in experiment [2] (setting [11]).

With `O=C(O)/C=C/c1ccc(Cl)cc1` [Compound 13, trans-4-chlorocinnamic acid], the IC50 in experiment [1] was 89.7 ± 3.2 µM; in experiment [3] (setting [9]) it was 57.3 ± 2.4 µM; in experiment [2] (setting [12]), 44 µM; in experiment [2] (setting [10]) it was 44.5 ± 2.2 µM; in experiment [2] (setting [11]) it was 43.7 µM.

For the compound `O=C(O)/C=C/c1ccc([N+](=O)[O-])cc1` [Compound 14, trans-4-nitrocinnamic acid], the IC50 is 96.5 ± 3 µM in experiment [1], 111 µM in experiment [2] (setting [12]), 112 ± 6.4 µM in experiment [2] (setting [10]) and 112 µM in experiment [2] (setting [11]).

In the case of `O=Cc1ccc(/C=C/C(=O)O)cc1` [Compound 15, trans-4-formylcinnamic acid], the IC50 is 98.5 ± 2.8 µM in experiment [1], 101 µM in experiment [2] (setting [12]), 101 ± 5.4 µM in experiment [2] (setting [10]) and 100 µM in experiment [2] (setting [11]).

Consider `O=C(O)/C=C/c1ccc(F)cc1` [Compound 16, trans-4-fluorocinnamic acid], for which the IC50 in experiment [1] was 65.2 ± 3.1 µM; in experiment [3] (setting [9]), 36.6 ± 2.1 µM; in experiment [2] (setting [12]), 33 µM; in experiment [2] (setting [10]), 33.4 ± 1.5 µM; in experiment [2] (setting [11]), 33.1 µM.

Regarding `O=C(O)/C=C/c1ccc(Br)cc1` [Compound 17, trans-4-bromocinnamic acid], the IC50 was 125 ± 5.5 µM in experiment [1], 87 µM in experiment [2] (setting [12]), 87.2 ± 3.5 µM in experiment [2] (setting [10]) and 87.1 µM in experiment [2] (setting [11]).

As to `CN(C)c1ccc(/C=C/C(=O)O)cc1` [Compound 18, trans-4-dimethylaminocinnamic acid], the IC50 in experiment [1] is 65.2 ± 3.1 µM; in experiment [3] (setting [9]) it was 19.6 ± 1.1 µM; in experiment [2] (setting [12]), 33 µM; in experiment [2] (setting [11]), 33.1 µM.

As for `O=C(O)/C=C/c1ccc(C(F)(F)F)cc1` [Compound 19, trans-4-trifluoromethylcinnamic acid], the IC50 in experiment [1] was 118 ± 5.1 µM; in experiment [2] (setting [12]), 97 µM; in experiment [2] (setting [10]), 97.2 ± 4.3 µM; in experiment [2] (setting [11]), 97.7 µM.

Consider `COc1ccc(C2CNC(=O)C2)cc1OC1CCCC1` (stereo not shown) [Rolipram, reference compound], for which the “LPS induced neutrophilia (% inhibition)” value in experiment [4] is 32.8% and 32.8 ± 0.40%. For the same compound, the “TNF-α inhibition (%)” value in experiment [5] was 41.7% and 41.7 ± 0.78%. The IC50 in experiment [1] worked out at 18.5 ± 1 µM.

Take `O=C(O)C=Cc1cc(O)c(O)c(O)c1` [THCA, 3,4,5-Trihydroxycinnamic acid]: in experiment [6], the “TNF-α in bronchoalveolar lavage fluid” value is recorded as “significantly inhibited”.
